According to the NIST ThermoML archive (doi:10.1021/je300775u):

Experiment: xn = mol fraction of the nth substance listed
Conditions: 101 kPa, Liquid; for speed of sound: Pulse-echo method; for mass density: Vibrating tube method

BrCBr [dibromomethane] + CCCCCCC
Conditions | mass density, 293.15 K [kg/m3] | mass density, 298.15 K [kg/m3] | mass density, 303.15 K [kg/m3] | mass density, 308.15 K [kg/m3] | mass density, 313.15 K [kg/m3] | speed of sound, 293.15 K [m/s] | speed of sound, 298.15 K [m/s] | speed of sound, 303.15 K [m/s] | speed of sound, 308.15 K [m/s] | speed of sound, 313.15 K [m/s]
x1 = 0.0504 | 727.59 | 723.09 | 718.56 | 714 | 709.41 | 1128.1 | 1107.3 | 1086.4 | 1065.7 | 1045.1
x1 = 0.1039 | 776.8 | 772.01 | 767.19 | 762.36 | 757.48 | 1104.9 | 1084.7 | 1064.4 | 1044.3 | 1024.3
x1 = 0.1552 | 826.84 | 821.77 | 816.67 | 811.54 | 806.36 | 1084 | 1064.4 | 1044.8 | 1025.2 | 1005.6
x1 = 0.2037 | 877.02 | 871.66 | 866.26 | 860.84 | 855.37 | 1065.7 | 1046.5 | 1027.3 | 1008.2 | 989
x1 = 0.2532 | 931.38 | 925.72 | 920.03 | 914.3 | 908.53 | 1048.3 | 1029.7 | 1010.9 | 992.3 | 973.7
x1 = 0.3019 | 988.09 | 982.12 | 976.09 | 970.04 | 963.95 | 1032.4 | 1014.2 | 995.8 | 977.6 | 959.6
x1 = 0.354 | 1052.94 | 1046.61 | 1040.23 | 1033.82 | 1027.38 | 1016.7 | 999.1 | 981.2 | 963.5 | 946
x1 = 0.4022 | 1117.05 | 1110.37 | 1103.65 | 1096.88 | 1090.09 | 1003.5 | 986.1 | 968.8 | 951.5 | 934.5
x1 = 0.4552 | 1192.54 | 1185.46 | 1178.34 | 1171.15 | 1163.95 | 990.1 | 973.2 | 956.4 | 939.6 | 923
x1 = 0.4962 | 1254.87 | 1247.47 | 1240.03 | 1232.54 | 1225 | 980.6 | 964.2 | 947.8 | 931.2 | 914.8
x1 = 0.5532 | 1347.9 | 1339.98 | 1332.06 | 1324.08 | 1316.09 | 969.3 | 953.3 | 937.4 | 921.4 | 905.5
x1 = 0.6119 | 1452.49 | 1444.09 | 1435.65 | 1427.16 | 1418.62 | 959.2 | 943.8 | 928.3 | 912.9 | 897.5
x1 = 0.6543 | 1534.18 | 1525.37 | 1516.52 | 1507.63 | 1498.69 | 953.4 | 938.2 | 923.1 | 908 | 893
x1 = 0.7032 | 1635.75 | 1626.46 | 1617.14 | 1607.76 | 1598.32 | 948 | 933.3 | 918.6 | 903.9 | 889.2
x1 = 0.7514 | 1744.18 | 1734.39 | 1724.55 | 1714.66 | 1704.72 | 944.6 | 930.2 | 915.8 | 901.5 | 887.2
x1 = 0.8024 | 1869.64 | 1859.25 | 1848.85 | 1838.4 | 1827.87 | 942.9 | 928.9 | 915 | 901.1 | 887
x1 = 0.8518 | 2003.09 | 1992.14 | 1981.12 | 1970.07 | 1958.96 | 943.8 | 930.2 | 916.5 | 902.9 | 889.3
x1 = 0.9004 | 2147.05 | 2135.43 | 2123.78 | 2112.21 | 2100.38 | 947.2 | 933.8 | 920.3 | 907.1 | 893.8
x1 = 0.9502 | 2310.37 | 2298.08 | 2285.74 | 2273.36 | 2260.95 | 953.1 | 940.1 | 927.1 | 914.1 | 901.1
x1 = 1 | 2491.67 | 2478.61 | 2465.53 | 2452.42 | 2439.26 | 961.8 | 949.2 | 936.6 | 924 | 911.4
